Test results as given in US6537980B1, “Vitamin D analogues and their pharmaceutical use” (Leo Pharmaceutical Products Ltd., priority 1999, dated 2003).
“Also recorded” adds a separate entry of the source.

Key:
rats = experiment: Calcemic activity in rats in vivo; set-up: species or system rat; settings: for Calc. rel.: calcemic activity in rats relative to 1,25(OH)2D3, >1 = more active
Text: Generally, the classical effects of 1,25(OH)2D3 on the calcium balance in the organism, including calcemic and calciuric activities, are unwanted in the vitamin D analogues of the present invention, in which selectivity for e.g. inhibition of the proliferation of certain cells, absence of calcemic effects and skin irritation is desired.

[1] = system: HaCaT human skin keratinocyte cell line; experiment: HaCaT antiproliferative assay measuring 3H-thymidine uptake; format: cell-based; settings: for HaCaT rel.: relative to 1,25(OH)2D3, ratio IC50 of 1,25(OH)2D3 / IC50 of compound, 3H-thymidine incorporation, >1 = more active
Text: An assay for the rating of test compounds for antiproliterative activity in skin cells, e.g. antipsoriatic effect, is the in vitro assay using HaCaT, a spontaneously immortalised, non-tumorigenic human skin keratinocyte cell line (Mørk Hansen, C. et al., J. Invest. Dermatol 1, 44-48 (1996)), measuring ^3H -thymidine uptake.

hairless guinea pigs = experiment: Skin irritation, occlusive patch test in hairless guinea pigs; format: in vivo, guinea pig; set-up: key to Skin irritation score: 0: Substances of no irritation; +: Substances of doubtful or very low irritancy compared to calcitriol; ++: Substances of low irritancy compared to calcitriol; +++: Substances with irritances in the same range as calcitriol; ++++: Substances of more irritancy than calcitriol; +++++: Very irritative substances compared to calcftriol; settings: for Skin irritation score: occlusive patch 48 hours, 500, 50 and 5 μg/ml, clinical grading, LDPI, erythema
Method: Skin irritation was assessed in hairless guinea pigs. Randomised occlusive patch testing for 48 hours was used. Each analogue was tested at three dose levels (500 μg/ml, 50 μg/ml, and 5 μg/ml) and a placebo solution was also included. Assessment of skin irritation was blinded and based upon clinical grading and objective measurement of cutaneous blood flow (laser Doppler perfusion imaging, LDPI) and erythema (Minolta ChromaMeter). Furthermore, epidermal thickness as an indication of epidermal hyperplasia was measured.
The irritancy scores were as defined below:
0 Substances of no irritation
+ Substances of doubtful or very low irritancy compared to calcitriol
++ Substances of low irritancy compared to calcitriol
+++ Substances with irritances in the same range as calcitriol
++++ Substances of more irritancy than calcitriol
+++++ Very irritative substances compared to calcftriol

vitamin D receptor = target: T1, vitamin D receptor (Homo sapiens, UniProt P11473); experiment: Binding to the vitamin D receptor in vitro, relative to Calcitriol; settings: relative to 1,25(OH)2D3; ratio IC50 of 1,25(OH)2D3 / IC50 of compound; >1 = more active
T1 sequence (P11473 1-427): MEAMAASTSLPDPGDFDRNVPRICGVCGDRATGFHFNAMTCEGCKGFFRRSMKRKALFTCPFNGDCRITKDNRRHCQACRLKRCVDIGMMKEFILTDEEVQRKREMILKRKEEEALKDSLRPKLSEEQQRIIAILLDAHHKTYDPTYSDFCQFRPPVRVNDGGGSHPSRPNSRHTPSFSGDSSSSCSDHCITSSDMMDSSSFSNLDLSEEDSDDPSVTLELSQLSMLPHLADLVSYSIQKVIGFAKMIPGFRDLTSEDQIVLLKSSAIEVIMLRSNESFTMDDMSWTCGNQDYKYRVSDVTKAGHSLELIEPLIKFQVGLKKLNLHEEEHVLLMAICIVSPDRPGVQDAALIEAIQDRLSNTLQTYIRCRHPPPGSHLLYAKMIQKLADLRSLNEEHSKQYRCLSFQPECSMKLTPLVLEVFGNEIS

Structure (SMILES)	Calc. rel. (rats)	HaCaT rel. [1]	Skin irritation score (hairless guinea pigs)	calcemic activity (in words) (rats; rats in vivo, compared with prior art compounds)	antiproliferative activity in skin cells (in words) ([1]; HaCaT, compared with Calcitriol / 1,25(OH)2D3)	skin irritation (in words) (hairless guinea pigs; compared with prior art compounds)	Receptor binding rel. (vitamin D receptor)
C=C1/C(=C\C=C2/CCC[C@]3(C)[C@@H]([C@H](C)/C=C/[C@@H](O)C4CC4)CC[C@@H]23)C[C@@H](O)C[C@@H]1O [Calcipotriol, reference compound]	0.005	2	+++	–	–	–	–
C=C1/C(=C\C=C2/CCC[C@]3(C)[C@@H]([C@H](C)CCCC(C)(C)O)CC[C@@H]23)C[C@@H](O)C[C@@H]1O [Calcitriol, 1α,25-dihydroxy-vitamin D3, reference compound]	1	1	+++	–	–	–	–
C=C1C(=CC=C2CCCC3(C)C2CCC3C(C)COCc2cccc(C(C)(C)O)c2)CC(O)CC1O [Compound 100, 1(S),3(R)-Dihydroxy-20(R)-[((3-(2-hydroxy-2-propyl)-phenyl)-methoxy)-methyl]-9,10-seco-pregna-5(Z),7(E),10(19)-triene]	0.001	1	+	very low calcemic activity; also recorded: negligible	same potency as the compound Calcitriol	considerably less skin irritation than compounds of the prior art	0.01
